According to patent publication US20110245284A1, “Alkoxy- and Alkylthio-Substituted Anilinopyrimidines” (Bayer CropScience AG, priority 2008, published 2011):

System: Pyricularia oryzae
Assay: whole plant or invertebrate
Assay type: in vivo
Details: 120 h, read-out: efficacy

Compound	pest or weed control at 250 ppm
CCCSc1ccc(Nc2ncc(Cl)c(NC3CC3)n2)cc1 [Example 96]	≥ 80%

System: not listed separately
Assay: logP by HPLC on reversed-phase columns (C 18), method [a], acidic range pH 2.3
Assay type: physicochemical
Details: pH 2.3
Method: (§1) The logP values were determined in accordance with EEC Directive 79/831 Annex V.A8 by HPLC (High Performance Liquid Chromatography) on reversed-phase columns (C 18), using the methods below:
[a] The determination is carried out in the acidic range at pH 2.3 using the mobile phases 0.1% aqueous phosphoric acid and acetonitrile, linear gradient from 10% acetonitrile to 95% acetonitrile.

Compound	log p	logP (pH2.3)
COCc1cccc(Nc2ncc(Cl)c(NC(C)(C)C(C)=O)n2)c1 [Example 9]	1.99[a]	–
COCc1cccc(Nc2ncc(Cl)c(NCCCN3CCCCCC3=O)n2)c1 [Example 52]	1.67[a]	–
CSC(C)c1cccc(N)c1 (stereo not drawn) [IVc-I-2]	–	1.03
COCC(O)c1cccc(N)c1 (stereo not drawn) [IVc-I-7, 1-(3-Aminophenyl)-2-methoxyethanol]	–	0.73

Same assay, conditions: pH 2.3, HPLC reversed-phase C 18

Compound	logP (pH2.3)
Clc1ncc(I)c(NC2CCC2)n1 [Example V-3, 2-Chloro-N-cyclobutyl-5-iodine-pyrimidin-4-amine]	3.08

Same assay, conditions: pH 2.3, logP (pH2.3)

Compound	chromatographic logP
COCC(O)c1cccc([N+](=O)[O-])c1 (stereo not drawn) [2-methoxy-1-(3-nitrophenyl)ethanol, 2-Methoxy-1-(3-nitrophenyl)ethanol]	1.35
Clc1ncc(Br)c(NC2CCC2)n1 [Example V-2, 5-Bromo-2-chloro-N-cyclobutylpyrimidin-4-amine]	2.86
Clc1ncc(Cl)c(NC2CC2)n1 [Example V-4, 2,5-Dichloro-N-cyclopropylpyrimidin-4-amine]	1.77
FC(F)(F)c1cnc(Cl)nc1NC1CC1 [Example V-21, 2-Chloro-N-cyclopropyl-5-(trifluoromethyl)pyrimidin-4-amine]	2.38
FC(F)(F)c1cnc(Cl)nc1NCC1CC1 [Example V-22, 2-Chloro-N-(cyclopropylmethyl)-5-(trifluoromethyl)pyrimidin-4-amine]	2.98
CCC(SC)c1cccc(N)c1 (stereo not drawn) [IVc-I-1, 3-[1-(Methylsulphanyl)propyl]aniline]	1.49
CCSC(CC)c1cccc(N)c1 (stereo not drawn) [IVc-I-3, 3-[1-(Ethylsulphanyl)propyl]aniline]	1.94
CCSC(C)c1cccc(N)c1 (stereo not drawn) [IVc-I-4, 3-[1-(Ethylsulphanyl)ethyl]aniline]	1.46
COCC(O)c1cccc(N)c1 (stereo not drawn) [IVc-I-5, 1-(3-Aminophenyl)-2-methoxyethanol]	0.51
COCCOC(c1cccc(N)c1)C(F)(F)F (stereo not drawn) [IVc-I-6, 3-[2,2,2-Trifluoro-1-(2-methoxyethoxy)ethyl]aniline]	1.64
CC(O)c1cccc(Nc2ncc(Br)c(NC3CC3)n2)c1 (stereo not drawn) [Ic-IV-2, 1-(3 -{[5-Bromo-4-(cyclopropylamino)pyrimidin-2-yl]amino}phenyl)ethanol]	1.31
CC(O)c1cccc(Nc2ncc(C(F)(F)F)c(NC3CC3)n2)c1 (stereo not drawn) [Ic-IV-3, 1-(3 -{[4-(Cyclopropylamino)-5-(trifluoromethyl)pyrimidin-2-yl]amino}phenyl)ethanol]	2.01
CCC(Cl)c1cccc([N+](=O)[O-])c1 (stereo not drawn) [VIIa-1, 1-(1-Chloropropyl)-3-nitrobenzene]	3.31
CCC(SC)c1cccc([N+](=O)[O-])c1 (stereo not drawn) [VIc-I-1, 1-[1-(Methylsulphanyl)propyl]-3-nitrobenzene]	3.51
CSC(C)c1cccc([N+](=O)[O-])c1 (stereo not drawn) [VIc-I-2, 1-[1-(Methylsulphanyl)ethyl]-3-nitrobenzene]	3.06
CCSC(CC)c1cccc([N+](=O)[O-])c1 (stereo not drawn) [VIc-I-3, 1-[1-(Ethylsulphanyl)propyl]-3-nitrobenzene]	3.96
CCSC(C)c1cccc([N+](=O)[O-])c1 (stereo not drawn) [VIc-I-4, 1-[1-(Ethylsulphanyl)ethyl]-3-nitrobenzene]	3.48
CCCSc1cccc(Nc2ncc(C(F)(F)F)c(Cl)n2)c1 [Xa-1, 4-Chloro-N-[3-(propylsulphanyl)phenyl]-5-(trifluoromethyl)pyrimidin-2-amine]	4.99
CC(C)Sc1cccc(Nc2ncc(C(F)(F)F)c(Cl)n2)c1 [Xa-2, 4-Chloro-N-[3-(propan-2-ylsulphanyl)phenyl]-5-(trifluoromethyl)pyrimidin-2-amine]	4.93
CC(C)CCSc1cccc(Nc2ncc(C(F)(F)F)c(Cl)n2)c1 [Xa-3, 4-Chloro-N-{3-[(3-methylbutyl)sulphanyl]phenyl}-5-(trifluoromethyl)pyrimidin-2-amine]	5.79
CC(C)CCSc1cccc(Nc2ncc(Cl)c(Cl)n2)c1 [Xa-4, 4,5 -Dichloro-N-{3-[(3-methylbutyl)sulphanyl]phenyl}pyrimidin-2-amine]	4.98
CCCSc1cccc(Nc2ncc(Cl)c(Cl)n2)c1 [Xa-5, 4,5-Dichloro-N-[3-(propylsulphanyl)phenyl]pyrimidin-2-amine]	4.1
CC(C)Sc1cccc(Nc2ncc(Cl)c(Cl)n2)c1 [Xa-6, 4,5-Dichloro-N-[3-(propan-2-ylsulphanyl)phenyl]pyrimidin-2-amine]	4.04
CC(C)CSc1cccc(Nc2ncc(C(F)(F)F)c(Cl)n2)c1 [Xa-7, 4-Chloro-N-{3-[(2-methylpropyl)sulphanyl]phenyl}-5-(trifluoromethyl)pyrimidin-2-amine]	5.4
CSC(C)c1cccc(Nc2ncc(C(F)(F)F)c(Cl)n2)c1 (stereo not drawn) [Xa-8, 4-Chloro-N-{3-[1-(methylsulphanyl)ethyl]phenyl}-5-(trifluoromethyl)pyrimidin-2-amine]	4.5
COC(C)c1cccc(Nc2ncc(C(F)(F)F)c(Cl)n2)c1 (stereo not drawn) [Xa-9, 4-Chloro-N-[3-(1-methoxyethyl)phenyl]-5-(trifluoromethyl)pyrimidin-2-amine]	3.89
CSc1cccc(Nc2ncc(C(F)(F)F)c(Cl)n2)c1 [Xa-11, 4-Chloro-N-[3-(methylsulphanyl)phenyl]-5-(trifluoromethyl)pyrimidin-2-amine]	4.11

System: Leptosphaeria nodorum
Assay: Leptosphaeria nodorum test (wheat) / protective
Assay type: in vivo
Details: Parastagonospora nodorum, active compound concentration 500 ppm, evaluation 7-9 days after inoculation, read-out: efficacy
Method: Thereafter, the plants are placed in a greenhouse at 90% relative atmospheric humidity and a temperature of 22° C.

Compound	pest or weed control at 500 ppm
CCCSc1ccc(Nc2ncc(Cl)c(NC3CC3)n2)cc1 [Example 96]	≥ 70%
CCSC(CC)c1cccc(Nc2ncc(Cl)c(NC3CC3)n2)c1 (stereo not drawn) [Example 115]	≥ 70%
CCS(=O)(=O)C(C)c1cccc(Nc2ncc(Cl)c(NC(C)C)n2)c1 (stereo not drawn) [Example 150]	≥ 70%
CCC(C)[S+]([O-])C(C)c1cccc(Nc2ncc(C(F)(F)F)c(NC3CC3)n2)c1 (stereo not drawn) [Example 160]	≥ 70%
CCC(C)S(=O)(=O)C(C)c1cccc(Nc2ncc(C(F)(F)F)c(NC3CC3)n2)c1 (stereo not drawn) [Example 187]	≥ 70%
COCc1cccc(Nc2ncc(Cl)c(N(C)C3CC3C)n2)c1 (stereo not drawn) [Example 199]	≥ 70%
CCCC[S+]([O-])c1cccc(Nc2ncc(C(F)(F)F)c(NC3CCC3)n2)c1 (stereo not drawn) [Example 203]	≥ 70%
CCSCc1cccc(Nc2ncc(Cl)c(NC3CCC3)n2)c1 [Example 219]	≥ 70%

System: not listed separately
Assay: logP by LC-MS on reversed-phase columns (C 18), method [c], neutral range pH 7.8
Assay type: physicochemical
Details: pH 7.8
Method: as §1
[c] The LC-MS determination in the neutral range is carried out at pH 7.8 using the mobile phases 0.001 molar aqueous ammonium bicarbonate solution and acetonitrile, linear gradient from 10% acetonitrile to 95% acetonitrile.

Compound	chromatographic logP
CCSC(CC)c1cccc(Nc2ncc(Cl)c(NC3CC3)n2)c1 (stereo not drawn) [Example 115]	4.69
CCS(=O)(=O)C(C)c1cccc(Nc2ncc(Cl)c(NC(C)C)n2)c1 (stereo not drawn) [Example 150]	2.89
CCC(C)[S+]([O-])C(C)c1cccc(Nc2ncc(C(F)(F)F)c(NC3CC3)n2)c1 (stereo not drawn) [Example 160]	3.11
CCC(C)S(=O)(=O)C(C)c1cccc(Nc2ncc(C(F)(F)F)c(NC3CC3)n2)c1 (stereo not drawn) [Example 187]	3.34
COCc1cccc(Nc2ncc(Cl)c(N(C)C3CC3C)n2)c1 (stereo not drawn) [Example 199]	4.36
CCCC[S+]([O-])c1cccc(Nc2ncc(C(F)(F)F)c(NC3CCC3)n2)c1 (stereo not drawn) [Example 203]	3.67
CCSCc1cccc(Nc2ncc(Cl)c(NC3CCC3)n2)c1 [Example 219]	4.44

System: not listed separately
Assay: logP by LC-MS on reversed-phase columns (C 18), method [b], acidic range pH 2.7
Assay type: physicochemical
Details: pH 2.7, log p
Method: as §1
[b] The LC-MS determination in the acidic range is carried out at pH 2.7 using the mobile phases 0.1% aqueous formic acid and acetonitrile (contains 0.1% formic acid), linear gradient from 10% acetonitrile to 95% acetonitrile.

Compound	chromatographic logP
CCCSc1ccc(Nc2ncc(Cl)c(NC3CC3)n2)cc1 [Example 96]	3.09
CCSC(CC)c1cccc(Nc2ncc(Cl)c(NC3CC3)n2)c1 (stereo not drawn) [Example 115]	3.33
CCS(=O)(=O)C(C)c1cccc(Nc2ncc(Cl)c(NC(C)C)n2)c1 (stereo not drawn) [Example 150]	1.65
CCC(C)[S+]([O-])C(C)c1cccc(Nc2ncc(C(F)(F)F)c(NC3CC3)n2)c1 (stereo not drawn) [Example 160]	2.85
CCC(C)S(=O)(=O)C(C)c1cccc(Nc2ncc(C(F)(F)F)c(NC3CC3)n2)c1 (stereo not drawn) [Example 187]	3.14
COCc1cccc(Nc2ncc(Cl)c(N(C)C3CC3C)n2)c1 (stereo not drawn) [Example 199]	3.23
CCCC[S+]([O-])c1cccc(Nc2ncc(C(F)(F)F)c(NC3CCC3)n2)c1 (stereo not drawn) [Example 203]	3.4
CCSCc1cccc(Nc2ncc(Cl)c(NC3CCC3)n2)c1 [Example 219]	3

System: Sphaerotheca fuliginea
Assay: Sphaerotheca test (cucumber) / protective
Assay type: in vivo
Details: Podosphaera fuliginea, 168 h, active compound concentration 500 ppm, evaluation 7 days after inoculation, read-out: efficacy
Method: The plants are subsequently placed in a greenhouse at 70% relative atmospheric humidity and a temperature of 23° C.

Compound	pest or weed control at 500 ppm
CCSC(CC)c1cccc(Nc2ncc(Cl)c(NC3CC3)n2)c1 (stereo not drawn) [Example 115]	≥ 70%
CCS(=O)(=O)C(C)c1cccc(Nc2ncc(Cl)c(NC(C)C)n2)c1 (stereo not drawn) [Example 150]	≥ 70%
CCC(C)[S+]([O-])C(C)c1cccc(Nc2ncc(C(F)(F)F)c(NC3CC3)n2)c1 (stereo not drawn) [Example 160]	≥ 70%
CCC(C)S(=O)(=O)C(C)c1cccc(Nc2ncc(C(F)(F)F)c(NC3CC3)n2)c1 (stereo not drawn) [Example 187]	≥ 70%
COCc1cccc(Nc2ncc(Cl)c(N(C)C3CC3C)n2)c1 (stereo not drawn) [Example 199]	≥ 70%
CCCC[S+]([O-])c1cccc(Nc2ncc(C(F)(F)F)c(NC3CCC3)n2)c1 (stereo not drawn) [Example 203]	≥ 70%
CCSCc1cccc(Nc2ncc(Cl)c(NC3CCC3)n2)c1 [Example 219]	≥ 70%
